Measurements from US10550143B2, “C,O-spiro aryl glycoside compounds, preparation therefor and use thereof” (SHANGHAI INSTITUTE OF MATERIA MEDICA, CHINESE ACADEMY OF …, priority 2015, dated 2020).

Columns and labels:
C57BL/6J mice = experiment: Acute administration of A28 at multiple doses, urinary glucose of C57BL/6J mice; assay type: in vivo, mouse; conditions: for Total sugar excretion / Urine concentration / Urine volume: 24 h urine
Method: (1) 90 normal male C57BL/6J mice were selected and randomly divided into 9 groups according to body weight and blood glucose, 10 in each group. […] After oral gavage, the mice were placed in rats (mice) metabolic cages, […] and urine was collected after 24 h, and the urine volume was recorded, then preserved under −20° C. Rats take food and water freely during the experimental period.
(2) Index Determination: Glucose levels in urine are measured by the glucose assay kit.

[1] = Pharmacokinetics in rats after intragastric and intravenous administration; assay type: in vivo, rat
Method: Six healthy rats were randomly divided into two groups, three for each group. A28 was administered orally and intravenously, and the drug was grounded and dissolved in 0.5% MC. Fasted for 8 h before testing.
Three rats were intravenously administrated with 2 mg/kg of test compound A28, and 3 rats were orally administered with 10 mg/kg of test compound A28. Blood was collected from the orbital venous plexus of rats before administration, at 15 min, 30 min, 1 hour, 2 hours, 4 hours, 8 hours, 24 hours after administration, respectively. Blood sample were taken from three rats at each time point for each dose, and the plasma was immediately centrifuged.

db/db mice = experiment: Chronic administration, fasting blood glucose in db/db mice; assay type: in vivo, mouse; conditions: for fasting blood glucose Pre: before administration; for Hypoglycemic rate % week 1 / Hypoglycemic rate % week 2 / Hypoglycemic rate % week 3 / Hypoglycemic rate % week 4: fasting blood glucose
Method: Oral gavage administrated, daily dose volume was 10 mL/kg, administered once daily. Administration time was 9: 00-10:00 daily, and the administration period was 5 weeks.
The random blood glucose of mice in the normal control group, model control group, test substance administration group and positive control group were determined on the 7th, 14th, 21st, 28th day (9: 00-10:00) every week after the first administration, and food was removed and after 6 hours of starvation, the fasting blood glucose in each group was measured. Free drinking during the hunger process. The rate of decrease of blood glucose was calculated according to the following formula: Average hypoglycemic rate %=(Blood glucose of model control group−Blood glucose of administration group)/Model control group×100%

[2] = rat, plasma, po, gavage 10 mg/kg

- AUC(0-t) ([1]; rat, plasma, intravenous, vein 2 mg/kg): 0.252 µg·h/mL
- AUC(0-inf) ([1]; rat, plasma, iv, vein 2 mg/kg): 0.252 µg·h/mL
- Cmax ([1]; rat, plasma, iv, vein 2 mg/kg): 0.201 µg/mL
- MRT ([1]; rat, plasma, iv, vein 2 mg/kg): 0.982 h
- Tmax ([1]; rat, plasma, iv, vein 2 mg/kg): 0.25 h
- half-life ([1]; rat, plasma, iv, vein 2 mg/kg): 1.53 h
- bioavailability ([1]; rat, plasma, oral, gavage 10 mg/kg vs vein 2 mg/kg, dose normalized, read-out: F (absolute bioavailability)): 107%
- AUC(0-inf) [1, 2]: 1.35 µg·h/mL
- AUC(0-t) [1, 2]: 1.35 µg·h/mL
- Cmax [1, 2]: 0.273 µg/mL
- MRT [1, 2]: 3.79 h
- Tmax [1, 2]: 1.67 h
- half-life [1, 2]: 1.69 h
- CLz ([1]; vein 2 mg/kg): 8.03 L/h/kg
SMILES: CCc1ccc(Cc2cc3c(cc2Cl)CO[C@]32O[C@H](C)[C@@H](O)[C@H](O)[C@H]2O)s1 [Example A28, (1S,3′R,4′S,5′S,6′R)-6′-methyl-6-((5-ethylthienyl)-2-methyl)-5-chloro-3′,4′,5′,6′-tetrahydro-3H-spiro[isobenzofuran-1,2′-pyran]-3′,4′,5′-triol]
- urinary exclusion effect compared with Dapagliflozin (C57BL/6J mice; at the same dose): equal to or stronger than positive control Dapagliflozin
- Total sugar excretion (C57BL/6J mice; oral 0.3 mg/kg): 10.31 ± 3.26 mg/100 g
- Urine concentration (C57BL/6J mice; oral 0.3 mg/kg): 7.91 ± 2.50 mmol/L
- Urine volume (C57BL/6J mice; oral 0.3 mg/kg): 2.1 ± 0.7 mL
- Total sugar excretion (C57BL/6J mice; oral 1 mg/kg): 175.49 ± 55.53 mg/100 g
- Urine concentration (C57BL/6J mice; oral 1 mg/kg): 133.28 ± 42.18 mmol/L
- Urine volume (C57BL/6J mice; oral 1 mg/kg): 1.8 ± 0.6 mL
- Total sugar excretion (C57BL/6J mice; oral 3 mg/kg): 440.02 ± 139.25 mg/100 g
- Urine concentration (C57BL/6J mice; oral 3 mg/kg): 265.71 ± 84.09 mmol/L
- Urine volume (C57BL/6J mice; oral 3 mg/kg): 2.1 ± 0.7 mL
- Total sugar excretion (C57BL/6J mice; oral 10 mg/kg): 712.00 ± 225.32 mg/100 g
- Urine concentration (C57BL/6J mice; oral 10 mg/kg): 344.07 ± 108.88 mmol/L
- Urine volume (C57BL/6J mice; oral 10 mg/kg): 2.5 ± 0.8 mL
- effective dose, urine glucose excretion (C57BL/6J mice; single oral, within 24 hours): ≤ 0.3 mg/kg
- fasting blood glucose week 1 (db/db mice; 0.3 mg/kg once daily oral): 10.6 ± 0.9 mmol/L
- fasting blood glucose week 2 (db/db mice; 0.3 mg/kg once daily oral): 10.5 ± 0.8 mmol/L
- fasting blood glucose week 3 (db/db mice; 0.3 mg/kg once daily oral): 12.3 ± 0.9 mmol/L
- fasting blood glucose week 4 (db/db mice; 0.3 mg/kg once daily oral): 12.6 ± 1.2 mmol/L
- fasting blood glucose Pre (db/db mice; 0.3 mg/kg once daily oral): 13.2 ± 0.7 mmol/L
- fasting blood glucose week 1 (db/db mice; 1 mg/kg once daily oral): 8.7 ± 0.6 mmol/L
- fasting blood glucose week 2 (db/db mice; 1 mg/kg once daily oral): 9.4 ± 0.9 mmol/L
- fasting blood glucose week 3 (db/db mice; 1 mg/kg once daily oral): 10.4 ± 1.0 mmol/L
- fasting blood glucose week 4 (db/db mice; 1 mg/kg once daily oral): 10.0 ± 0.7 mmol/L
- fasting blood glucose Pre (db/db mice; 1 mg/kg once daily oral): 13.2 ± 1.3 mmol/L
- fasting blood glucose week 1 (db/db mice; 3 mg/kg once daily oral): 8.6 ± 0.5 mmol/L
- fasting blood glucose week 2 (db/db mice; 3 mg/kg once daily oral): 6.8 ± 0.6 mmol/L
- fasting blood glucose week 3 (db/db mice; 3 mg/kg once daily oral): 8.1 ± 0.5 mmol/L
- fasting blood glucose week 4 (db/db mice; 3 mg/kg once daily oral): 8.5 ± 0.6 mmol/L
- fasting blood glucose Pre (db/db mice; 3 mg/kg once daily oral): 13.5 ± 1.5 mmol/L
- fasting blood glucose week 1 (db/db mice; 10 mg/kg once daily oral): 7.6 ± 0.6 mmol/L
- fasting blood glucose week 2 (db/db mice; 10 mg/kg once daily oral): 6.9 ± 0.5 mmol/L
- fasting blood glucose week 3 (db/db mice; 10 mg/kg once daily oral): 7.2 ± 0.6 mmol/L
- fasting blood glucose week 4 (db/db mice; 10 mg/kg once daily oral): 7.3 ± 0.5 mmol/L
- fasting blood glucose Pre (db/db mice; 10 mg/kg once daily oral): 13.8 ± 1.2 mmol/L
- Hypoglycemic rate % week 1 (db/db mice; 0.3 mg/kg once daily oral): 21.4%
- Hypoglycemic rate % week 2 (db/db mice; 0.3 mg/kg once daily oral): 52.3%
- Hypoglycemic rate % week 3 (db/db mice; 0.3 mg/kg once daily oral): 30.6%
- Hypoglycemic rate % week 4 (db/db mice; 0.3 mg/kg once daily oral): 21.1%
- Hypoglycemic rate % week 1 (db/db mice; 1 mg/kg once daily oral): 35.0%
- Hypoglycemic rate % week 2 (db/db mice; 1 mg/kg once daily oral): 57.2%
- Hypoglycemic rate % week 3 (db/db mice; 1 mg/kg once daily oral): 41.5%
- Hypoglycemic rate % week 4 (db/db mice; 1 mg/kg once daily oral): 37.8%
- Hypoglycemic rate % week 1 (db/db mice; 3 mg/kg once daily oral): 36.2%
- Hypoglycemic rate % week 2 (db/db mice; 3 mg/kg once daily oral): 69.2%
- Hypoglycemic rate % week 3 (db/db mice; 3 mg/kg once daily oral): 54.2%
